Key:
Type in all cases: cell-based
DENV-3 strain H87 = assay: Tetravalent RT-qPCR assay Protocol B, serotype 3; conditions: Dengue virus, DENV3, 168 h, RT-qPCR serotype 3 H87, 7 days
Description: (§1) The antiviral activity of the compounds of the invention was tested against DENV-1 strain Djibouti strain (D1/H/IMTSSA/98/606; Table 6), DENV-2 strain NGC (Table 7), DENV-3 strain H87 (Table 8) and DENV-4 strain SG/06K2270DK1/2005 (Table 9B) in a RT-qPCR assay. Vero-B or Vero-M cells (5×10^4) were seeded in 96-well plates. One day later, culture medium was replaced with 100 μL assay medium containing a 2×, 3× or 5× serial dilution of the compound (concentration range: 50 μg/mL-0.00038 μg/mL, 50 μg/mL-0.0076 μg/mL, and 50 μg/mL-0.00013 μg/mL, respectively) and 100 μL of dengue virus inoculum (DENV). Following a 2 hour incubation period, the cell monolayer was washed 3 times with assay medium to remove residual, non-adsorbed virus and cultures were further incubated for either 4 days (DENV-2 NGC) or 7 days (DENV-1 Djibouti strain D1/H/IMTSSA/98/606, DENV-3 strain H87 prototype, DENV-4 strain H241, and DENV-4 strain EDEN) in the presence of the inhibitor. Supernatant was harvested and viral RNA load was determined by real-time quantitative RT-PCR. The 50% effective concentration (EC50), which is defined as the compound concentration that is required to inhibit viral RNA replication by 50%, was determined using logarithmic interpolation.
(§2) RNA was isolated from 100 μL (or in some circumstances 150 μL) supernatant with the NucleoSpin 96 Virus kit (Filter Service, Duren, Germany) as described by the manufacturer. The sequences of the TaqMan primers (DENV-For, DENV-Rev; Table 5) and TaqMan probes (DENV-Probe Table 5) were selected from non-structural gene 3 (NS3) or NS5, of the respective flaviviruses using Primer Express software (version 2.0; Applied Biosystems, Lennik, Belgium). The TaqMan probe was fluorescently labelled with 6-carboxyfluorescein (FAM) at the 5′ end as the reporter dye, and with minor groove binder (MGB) at the 3′ end as the quencher (Table 5). One-step, quantitative RT-PCR was performed in a total volume of 25 μL, containing 13.9375 μL H2O, 6.25 μL master mix (Eurogentec, Seraing, Belgium), 0.375 μL forward primer, 0.375 μL reverse primer, 1 μL probe, 0.0625 μL reverse transcriptase (Eurogentec) and 3 μL sample. RT-PCR was performed using the ABI 7500 Fast Real-Time PCR System (Applied Biosystems, Branchburg, New Jersey, USA) using the following conditions: 30 min at 48° C. and 10 min at 95° C., followed by 40 cycles of 15 s at 95° C. and 1 min at 60° C. The data was analyzed using the ABI PRISM 7500 SDS software (version 1.3.1; Applied Biosystems). For absolute quantification, standard curves were generated using 10-fold dilutions of template preparations of known concentrations.

in vitro = conditions: African green monkey, CC50
How it was run: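 Vero cells (10000/well) in MEM with 2% FCS were preincubated overnight with compound, then infected with DENV-1, -2, -3 or -4 (dose set to Cp ~22-24) and cultured 3 days at 37 °C. Duplex RT-qPCR measured viral 3′UTR against β-actin. EC50 by ΔΔCp; CC50 also derived.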

DENV-2 strain 16681 = assay: Tetravalent RT-qPCR assay Protocol A, serotype 2; conditions: Dengue virus, DENV2, 72 h; Protocol A, RT-qPCR serotype 2 16681, Vero cells, day 3; read-out: EC50
How it was run: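 Vero cells in MEM with 2% FCS were infected with DENV in the presence of compound and incubated for 3 days at 37° C. Lysates underwent RT and duplex qPCR for the viral 3′UTR and β-actin. EC50 came from ΔΔCp normalized to β-actin, and CC50 from the β-actin signal.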

DENV-2 strain NGC = assay: Tetravalent RT-qPCR assay Protocol B, serotype 2; conditions: Dengue virus, DENV2, 96 h, RT-qPCR serotype 2 NGC-Tongalike, 4 days
Description: as §1, §2

| Compound | EC50 (DENV-3 strain H87) | CC50 at 3 days (in vitro) | EC50 (DENV-2 strain 16681) | EC50 (DENV-2 strain NGC) |
| --- | --- | --- | --- | --- |
| COc1cc(NC(C(=O)c2c[nH]c3cc(F)ccc23)c2ccc(Cl)cc2OC)cc(S(C)(=O)=O)c1 (single isomer, unassigned) [Compound 1A, 2-(4-chloro-2-methoxyphenyl)-1-(6-fluoro-1H-indol-3-yl)-2-((3-methoxy-5-(methylsulfonyl)phenyl)amino)ethanone] | < 15 nM | 5000 nM | 0.28 nM | < 0.27 nM |
| COc1cc(NC(C(=O)c2c[nH]c3c(C)c(F)ccc23)c2ccc(Cl)cc2OC)cc(S(C)(=O)=O)c1 (single isomer, unassigned) [Compound 2A, 2-(4-chloro-2-methoxyphenyl)-1-(6-fluoro-7-methyl-1H-indol-3-yl)-2-((3-methoxy-5-(methylsulfonyl)phenyl)amino)ethanone] | < 14 nM | 5300 nM | 0.24 nM | < 0.24 nM |
| COc1cc(NC(C(=O)c2c[nH]c3cc(OC)c(C)cc23)c2ccc(Cl)cc2OC)cc(S(C)(=O)=O)c1 (single isomer, unassigned) [Compound 4A, 2-(4-chloro-2-methoxyphenyl)-2-((3-methoxy-5-(methyl-sulfonyl)phenyl)amino)-1-(6-methoxy-5-methyl-1H-indol-3-yl)ethanone] | < 14 nM | – | 0.2 nM | 0.32 nM |
| COc1cc(NC(C(=O)c2c[nH]c3cc(OC)c(F)cc23)c2ccc(Cl)cc2OC)cc(S(C)(=O)=O)c1 (single isomer, unassigned) [Compound 5A, 2-(4-chloro-2-methoxyphenyl)-1-(5-fluoro-6-methoxy-1H-indol-3-yl)-2-((3-methoxy-5-(methylsulfonyl)phenyl)amino)ethanone] | 22 nM | 5200 nM | 0.34 nM | < 0.23 nM |
| COc1cc(NC(C(=O)c2c[nH]c3c(C)c(OC)ccc23)c2ccc(Cl)cc2OC)cc(S(C)(=O)=O)c1 (single isomer, unassigned) [Compound 6A, 2-(4-chloro-2-methoxyphenyl)-2-((3-methoxy-5-(methyl-sulfonyl)phenyl)amino)-1-(6-methoxy-7-methyl-1H-indol-3-yl)ethanone] | < 14 nM | > 10000 nM | 0.11 nM | < 0.24 nM |
